# Source: ChEMBL document CHEMBL5500412, “Discovery of Highly Selective, Potent, Covalent, and Orally Bioavailable Factor XIIa Inhibitors for the Treatment of Thrombo-Inflammation” (J Med Chem, 2024)
# pIC50, pKi: −log10 of the molar value. Activity calls are given as the source filed them. The rule behind the calls is not given here.
# Legend:
# Coagulation factor XII [1] = biological target: T1, Coagulation factor XII (Homo sapiens, UniProt P00748); test: Binding affinity to FXIIa (unknown origin) assessed as inhibition constant using H-D-Pro-Phe-Arg-pNA.2HCl as substrate by spectrophotometric analysis
# T1 sequence (P00748 whole entry): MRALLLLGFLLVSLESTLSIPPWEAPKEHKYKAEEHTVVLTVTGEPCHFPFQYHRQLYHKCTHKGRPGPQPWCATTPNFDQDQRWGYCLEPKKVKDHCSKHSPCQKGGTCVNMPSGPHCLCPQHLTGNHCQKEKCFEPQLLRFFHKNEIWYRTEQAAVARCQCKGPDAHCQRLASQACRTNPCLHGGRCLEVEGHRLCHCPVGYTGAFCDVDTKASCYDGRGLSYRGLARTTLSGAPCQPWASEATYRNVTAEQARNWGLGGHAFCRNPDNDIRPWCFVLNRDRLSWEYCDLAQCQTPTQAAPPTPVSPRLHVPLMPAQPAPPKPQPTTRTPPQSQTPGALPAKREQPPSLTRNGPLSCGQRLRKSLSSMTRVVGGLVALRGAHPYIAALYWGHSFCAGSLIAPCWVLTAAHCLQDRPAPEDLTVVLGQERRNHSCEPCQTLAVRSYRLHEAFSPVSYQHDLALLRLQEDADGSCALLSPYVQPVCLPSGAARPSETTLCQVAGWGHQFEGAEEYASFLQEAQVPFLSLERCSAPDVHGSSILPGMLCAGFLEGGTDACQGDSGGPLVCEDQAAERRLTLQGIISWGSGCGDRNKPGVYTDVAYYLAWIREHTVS
# Plasma [2] = test: Anticoagulant activity in human plasma assessed as prolongation of activated partial thromboplastin time incubated for 2 mins by aPTT reagent based assay; format: functional
# [3] = Selectivity index, ratio of IC50 for trypsin (unknown origin) to IC50 for FXIIa (unknown origin)
# [4] = biological target: T2, Coagulation factor XII (Homo sapiens) (UniProt P00748); test: Binding affinity to FXIIa (unknown origin) assessed as inactivation rate using H-D-Pro-Phe-Arg-pNA.2HCl as substrate by spectrophotometric analysis
# T2 sequence (whole entry): T1 sequence (P00748 whole entry)
# Prothrombin = Prothrombin (Homo sapiens, UniProt P00734); test: Inhibition of thrombin (unknown origin) using H-D-Phe-Pip-Arg-pNA-2HCl as substrate incubated for 20 mins followed by substrate addition by spectrophotometric analysis
# Chymotrypsin = Chymotrypsin (Homo sapiens, UniProt Q99895+P17538+P40313+Q6GPI1); test: Inhibition of Chymotrypsin (unknown origin) using N-Suc-Ala-Ala-Pro-Phe-pNA as chromogenic substrate incubated for 20 mins followed by substrate addition by spectrophotometric analysis; format: protein assay
# RAW264.7 [5] = test: Antiinflammatory activity in mouse RAW264.7 cells assessed as inhibition of LPS-induced IL-1 beta expression at 10 uM preincubated for 12 hrs followed by LPS stimulation and measured after 12 hrs by real time quantitative RT-PCR assay; format: functional, cell-based; conditions: time 24.0 hrs
# [6] = Selectivity index, ratio of IC50 for plasmin (unknown origin) to IC50 for FXIIa (unknown origin)
# Coagulation factor XI = Coagulation factor XI (Homo sapiens, UniProt P03951); test: Inhibition of FXIa (unknown origin) using p-Glu-Pro-Arg-pNA.HCl as chromogenic substrate incubated for 20 mins followed by substrate addition by spectrophotometric analysis
# RAW264.7 [7] = test: Antiinflammatory activity in mouse RAW264.7 cells assessed as inhibition of LPS-induced IL-6 expression at 10 uM preincubated for 12 hrs followed by LPS stimulation and measured after 12 hrs by real time quantitative RT-PCR assay; format: functional, cell-based; conditions: time 24.0 hrs
# [8] = biological target: T2, Coagulation factor XII (Homo sapiens); test: Covalent inhibition of FXIIa (unknown origin) at 20 to 40 nM measured after 10 mins; conditions: dose 20-40 nM
# [9] = Selectivity index, ratio of IC50 for chymotrypsin (unknown origin) to IC50 for FXIIa (unknown origin)
# Plasma [10] = test: Anticoagulant activity in human plasma assessed as prolongation of […] time at 300 uM incubated for 2 mins by PT reagent based assay relative to control; format: functional
# [11] = Selectivity index, ratio of IC50 for FXa (unknown origin) to IC50 for FXIIa (unknown origin)
# [12] = biological target: T2, Coagulation factor XII (Homo sapiens); test: Binding affinity to FXIIa (unknown origin) assessed as Kinact/Ki using H-D-Pro-Phe-Arg-pNA.2HCl as substrate by spectrophotometric analysis
# Plasma [13] = test: Anticoagulant activity in human plasma assessed as prolongation of activated partial thromboplastin time at 300 uM incubated for 2 mins by aPTT reagent based assay relative to control; format: functional
# Coagulation factor XII [14] = biological target: T1, Coagulation factor XII; test: Inhibition of FXIIa (unknown origin) using H-D-Pro-Phe-Arg-pNA as substrate incubated for 20 mins followed by substrate addition by spectrophotometric analysis
# [15] = Selectivity index, ratio of IC50 for thrombin (unknown origin) to IC50 for FXIIa (unknown origin)
# Trypsin = Trypsin (Homo sapiens, UniProt P07477+P07478+P35030); test: Inhibition of trypsin (unknown origin) using Bz-lle-Glu(gamma-OR)-Gly-Arg-pNA.HCl as chromogenic substrate incubated for 20 mins followed by substrate addition by spectrophotometric analysis; format: protein assay
# [16] = Selectivity index, ratio of IC50 for FXIa (unknown origin) to IC50 for FXIIa (unknown origin)
# [17] = biological target: Tissue-type plasminogen activator (Homo sapiens, UniProt P00750); test: Inhibition of tPA (unknown origin) using H-D-lle-Pro-Arg-pNA-2HCl as chromogenic substrate incubated for 20 mins followed by substrate addition by spectrophotometric analysis
# [18] = Selectivity index, ratio of IC50 for tPA (unknown origin) to IC50 for FXIIa (unknown origin)
# [19] = Selectivity index, ratio of IC50 for PKal (unknown origin) to IC50 for FXIIa (unknown origin)
# [20] = biological target: T2, Coagulation factor XII (Homo sapiens); test: Inhibition of FXIIa (unknown origin) using H-D-Pro-Phe-Arg-pNA as substrate preincubated for 20 mins followed by 100 fold dilution upto 120 mins then substrate addition for 60 mins by jump dilution assay; conditions: time <= 200.0 min
# Plasma kallikrein = Plasma kallikrein (Homo sapiens, UniProt P03952); test: Inhibition of PKal (unknown origin) using H-D-Pro-Phe-Arg-pNA-2HCl as substrate incubated for 20 mins followed by substrate addition by spectrophotometric analysis
# Plasma [21] = test: Anticoagulant activity in non-activated human plasma at 10 to 25 uM measured after 30 mins; format: functional, cell-free; conditions: dose 10-25 µM
# Sequence of Coagulation factor XI (P03951 19-387 limits assumed): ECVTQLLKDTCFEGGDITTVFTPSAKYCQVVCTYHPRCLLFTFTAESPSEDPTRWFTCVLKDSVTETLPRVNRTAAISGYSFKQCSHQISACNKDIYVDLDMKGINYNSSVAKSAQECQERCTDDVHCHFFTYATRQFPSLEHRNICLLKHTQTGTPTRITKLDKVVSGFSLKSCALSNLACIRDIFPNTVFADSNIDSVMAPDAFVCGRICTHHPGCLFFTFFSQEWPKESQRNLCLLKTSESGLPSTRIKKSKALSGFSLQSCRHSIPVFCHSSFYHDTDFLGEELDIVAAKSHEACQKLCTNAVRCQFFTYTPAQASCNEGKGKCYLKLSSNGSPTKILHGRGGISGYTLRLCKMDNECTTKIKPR
# Sequence of Coagulation factor XI (P03951 388-625 limits assumed): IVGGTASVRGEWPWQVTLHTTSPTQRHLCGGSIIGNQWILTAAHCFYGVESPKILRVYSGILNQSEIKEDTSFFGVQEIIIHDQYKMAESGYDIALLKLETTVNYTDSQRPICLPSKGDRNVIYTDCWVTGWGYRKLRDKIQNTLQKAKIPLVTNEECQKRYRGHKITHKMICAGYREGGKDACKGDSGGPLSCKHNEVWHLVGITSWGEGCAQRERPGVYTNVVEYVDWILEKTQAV
# Sequence of Tissue-type plasminogen activator (P00750 whole entry): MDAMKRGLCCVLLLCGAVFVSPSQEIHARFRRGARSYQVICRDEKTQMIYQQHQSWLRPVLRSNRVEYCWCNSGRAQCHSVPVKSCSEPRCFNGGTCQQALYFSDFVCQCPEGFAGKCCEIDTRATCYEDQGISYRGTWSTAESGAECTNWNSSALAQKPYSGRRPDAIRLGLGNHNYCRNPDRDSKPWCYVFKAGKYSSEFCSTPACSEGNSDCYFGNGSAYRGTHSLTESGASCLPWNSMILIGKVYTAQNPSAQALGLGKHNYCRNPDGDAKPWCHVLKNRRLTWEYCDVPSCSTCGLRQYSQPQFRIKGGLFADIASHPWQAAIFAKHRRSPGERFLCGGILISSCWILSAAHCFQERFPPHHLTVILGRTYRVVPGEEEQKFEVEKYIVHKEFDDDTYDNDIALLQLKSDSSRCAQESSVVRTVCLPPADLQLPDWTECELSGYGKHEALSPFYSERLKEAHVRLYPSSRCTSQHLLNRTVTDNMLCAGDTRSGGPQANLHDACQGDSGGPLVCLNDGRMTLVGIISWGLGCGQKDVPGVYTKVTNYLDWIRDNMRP
# Sequence of Plasma kallikrein (P03952 20-390 limits assumed): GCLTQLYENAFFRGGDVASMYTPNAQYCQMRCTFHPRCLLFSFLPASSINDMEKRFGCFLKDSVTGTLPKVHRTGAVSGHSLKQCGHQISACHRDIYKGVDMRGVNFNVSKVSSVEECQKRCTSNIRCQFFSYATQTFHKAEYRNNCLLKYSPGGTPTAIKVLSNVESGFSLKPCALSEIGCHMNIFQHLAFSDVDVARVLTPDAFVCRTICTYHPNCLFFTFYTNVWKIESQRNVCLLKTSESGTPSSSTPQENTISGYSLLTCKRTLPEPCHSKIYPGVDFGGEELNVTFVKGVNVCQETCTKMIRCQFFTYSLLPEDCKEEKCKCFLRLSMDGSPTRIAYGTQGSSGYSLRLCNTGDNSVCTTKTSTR
# Sequence of Plasma kallikrein (P03952 391-638 limits assumed): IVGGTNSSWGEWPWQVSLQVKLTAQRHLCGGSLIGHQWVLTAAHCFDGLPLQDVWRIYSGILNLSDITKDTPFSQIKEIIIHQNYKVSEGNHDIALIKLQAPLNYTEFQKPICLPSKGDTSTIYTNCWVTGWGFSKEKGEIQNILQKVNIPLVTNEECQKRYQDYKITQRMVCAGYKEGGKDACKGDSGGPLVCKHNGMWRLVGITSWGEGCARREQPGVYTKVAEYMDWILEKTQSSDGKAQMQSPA
smiles,measurement,setting,value
Nc1nc(-c2ccccn2)nn1C(=O)c1cccc2ccccc12,pKi,Coagulation factor XII [1],7.36
same,EC1.5,Plasma [2],145 µM
same,Ratio IC50,[3],> 140
same,Kinact,[4],0.026 min⁻¹
same,pIC50,Prothrombin,6.44
same,IC50,Chymotrypsin,> 5000 nM
same,Activity,RAW264.7 [5],Active
same,Ratio IC50,[6],> 140
same,pIC50,Coagulation factor XI,< 4.60
same,Activity,RAW264.7 [7],Active
same,inhibition,[8],Active
same,Ratio IC50,[9],> 140
same,Activity,Plasma [10],17%
same,Ratio IC50,[11],> 140
same,K,[12],5.96 10^5/M/min
same,Activity,Plasma [13],303%
same,pIC50,Coagulation factor XII [14],7.46
same,Ratio IC50,[15],10
same,IC50,Trypsin,> 5000 nM
same,Ratio IC50,[16],> 710
same,pIC50,[17],< 5.30
same,Ratio IC50,[18],> 140
same,Ratio IC50,[19],> 710
same,inhibition,[20],inactive
same,pIC50,Plasma kallikrein,< 4.60
same,Activity,Plasma [21],inactive
